Source: US9212168B2 (priority 2011, dated 2015)

Experiments:
HCV genotype 1b replicon = HCV genotype 1b replicon assay (Renilla luciferase readout); assay type: cell-based, hepatitis C virus; settings: for Genotype 1b: HCV genotype 1b replicon
Summary of the method: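 Huh7-derived APC144 subgenomic replicon cells carrying Renilla luciferase–NS3-NS5B, seeded 10,000/well without G418, then treated with compound dose-responses for 48 h at 37 °C (0.5% DMSO final). Luciferase signal fitted by 4-parameter model to EC50, reported as pEC50.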

HCV genotype 1a replicon = HCV genotype 1a replicon assay (NS3 protease activity readout); assay type: cell-based, hepatitis C virus; settings: for Genotype 1a: HCV genotype 1a replicon
Summary of the method: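 Genotype 1a subgenomic replicon cells (APC89, Huh7.5) were treated with compound dose-responses in G418-free medium, 0.5% DMSO final, for 48 or 72 hours at 37° C. Lysate NS3/4a protease activity measured with 15 μM FRET substrate, 20 min at 37° C (ex 340/em 509 nm); EC50 by 4-parameter fit.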

For `COC(=O)NC(C(=O)N1C[C@@H](C)C[C@H]1c1nc(-c2ccc(-c3ccc(C(=O)Nc4ccc(N5CCN(C(=O)C(C)(C)C)C[C@H]5C)nc4)c(F)c3OC(F)(F)F)cc2)c[nH]1)C1CCOCC1` (stereo partly shown) [Example 25-2], which EC50 (HCV genotype 1b replicon; Hepatitis C virus, read-out: Genotype 1b) is on record?
The EC50 was < 0.1 nM.

What about the EC50 (HCV genotype 1a replicon; Hepatitis C virus, read-out: Genotype 1a, HCV genotype 1a replicon) of the same compound?
The EC50 was < 0.1 nM.

What does the source list for `COC(=O)N[C@H](C(=O)N1C[C@@H](O)C[C@H]1c1nc(-c2ccc(-c3ccc(NC(=O)c4ccc(N5CCN(C(=O)[C@H]6CC6(C)C)C[C@H]5C)nc4)cc3)cc2)c[nH]1)C(C)C` [Example 26-4]?
Genotype 1b (HCV genotype 1b replicon): D (D represents pEC50>10 (EC50<0.1 nM)); Genotype 1a (HCV genotype 1a replicon): C (C represents pEC50 between and 9 and about 10, (EC50 between 1 nM and 0.1 nM))

What does the source list for `COC(=O)N[C@H](C(=O)N1C[C@@H](O)C[C@H]1c1nc(-c2ccc(-c3cc(F)c(NC(=O)c4ccc(N5CCN(C(=O)C(C)(C)CO)C[C@H]5C)nc4)cc3OC(F)(F)F)cc2)c[nH]1)C(C)C` [Example 26-7]?
Genotype 1b (HCV genotype 1b replicon): D (D represents pEC50>10 (EC50<0.1 nM)); Genotype 1a (HCV genotype 1a replicon): C (C represents pEC50 between and 9 and about 10, (EC50 between 1 nM and 0.1 nM))

Which results are given for `COC(=O)N[C@H](C(=O)N1C[C@@H](OC)C[C@H]1c1nc(-c2ccc(-c3cc(Cl)c(NC(=O)c4ccc(N5CCN(C(=O)[C@H]6CC6(C)C)C[C@H]5C)nc4)cc3OC(F)(F)F)cc2)c[nH]1)C(C)C` [Example 27-1]?
Genotype 1b (HCV genotype 1b replicon): D (D represents pEC50>10 (EC50<0.1 nM)); Genotype 1a (HCV genotype 1a replicon): D (D represents pEC50>10 (EC50<0.1 nM))

How did the “Genotype 1b” value (HCV genotype 1b replicon) turn out when `COC(=O)N[C@H](C(=O)N1C[C@@H](OC)C[C@H]1c1nc(-c2ccc(-c3cc(F)c(NC(=O)c4ccc(N5CCN(C(=O)C(C)(C)C)C[C@H]5C)nc4)cc3OC(F)(F)F)cc2)c[nH]1)C(C)C` [Example 27-3] was run?
Its value is “D (D represents pEC50>10 (EC50<0.1 nM))”.

And the “Genotype 1a” value (HCV genotype 1a replicon)?
The value was “D (D represents pEC50>10 (EC50<0.1 nM))”.

`COC(=O)N[C@H](C(=O)N1C[C@@H](OC)C[C@H]1c1nc(-c2ccc(-c3cc(Cl)c(NC(=O)c4ccc(N5CCN(C(=O)[C@]67C[C@H]6CCN7)C[C@H]5C)nc4)cc3OC(F)(F)F)cc2)c[nH]1)C(C)C` [Example 27-5] was tested. Which “Genotype 1b” value (HCV genotype 1b replicon) did it give?
Its value is “D (D represents pEC50>10 (EC50<0.1 nM))”.

And the “Genotype 1a” value (HCV genotype 1a replicon)?
The value was “D (D represents pEC50>10 (EC50<0.1 nM))”.

What does the source list for `COC(=O)N[C@H](C(=O)N1C[C@@H](OC)C[C@H]1c1nc(-c2ccc(-c3cc(F)c(NC(=O)c4ccc(N5CCN(C(=O)C(C)(C)CO)C[C@H]5C)nc4)cc3OC(F)(F)F)cc2)c[nH]1)C(C)C` [Example 27-6]?
Genotype 1b (HCV genotype 1b replicon): D (D represents pEC50>10 (EC50<0.1 nM)); Genotype 1a (HCV genotype 1a replicon): D (D represents pEC50>10 (EC50<0.1 nM))

With `COC(=O)N[C@H](C(=O)N1C[C@@H](OC)C[C@H]1c1nc(-c2ccc(-c3ccc(NC(=O)c4ccc(N5CCN(C(=O)C(C)(C)C)C[C@H]5C)nc4)cc3OC(F)(F)F)cc2)c[nH]1)C(C)C` [Example 27-8] as the compound, how does the “Genotype 1b” value (HCV genotype 1b replicon) read?
The value was “D (D represents pEC50>10 (EC50<0.1 nM))”.

What about the “Genotype 1a” value (HCV genotype 1a replicon) of the same compound?
Its value is “D (D represents pEC50>10 (EC50<0.1 nM))”.

How did the “Genotype 1b” value (HCV genotype 1b replicon) turn out when `COC(=O)N[C@H](C(=O)N1C[C@@H](OC)C[C@H]1c1nc(-c2ccc(-c3cc(F)c(NC(=O)c4ccc(N5CCN(C(=O)C(C)(C)C)C[C@H]5C)nc4)cc3OC(F)(F)F)cc2)c[nH]1)C1CCOCC1` [Example 28-1] was run?
Its value is “D (D represents pEC50>10 (EC50<0.1 nM))”.

What about the “Genotype 1a” value (HCV genotype 1a replicon) of the same compound?
The value was “D (D represents pEC50>10 (EC50<0.1 nM))”.

For `COC(=O)N[C@H](C(=O)N1C[C@@H](OC)C[C@H]1c1nc(-c2ccc(-c3ccc(NC(=O)c4ccc(N5CCN(C(=O)C(C)(C)C)C[C@H]5C)nc4)cc3OC(F)(F)F)cc2)c[nH]1)C1CCOCC1` [Example 28-2], which “Genotype 1b” value (HCV genotype 1b replicon) is on record?
The value was “D (D represents pEC50>10 (EC50<0.1 nM))”.

What about the “Genotype 1a” value (HCV genotype 1a replicon) of the same compound?
The value was “D (D represents pEC50>10 (EC50<0.1 nM))”.

Which results are given for `COC(=O)N[C@H](C(=O)N1C[C@@H](OC)C[C@H]1c1nc(-c2ccc(-c3cc(F)c(NC(=O)c4ccc(N5CCN(C(=O)C(C)(C)CO)C[C@H]5C)nc4)cc3OC(F)(F)F)cc2)c[nH]1)C1CCOCC1` [Example 28-3]?
Genotype 1b (HCV genotype 1b replicon): D (D represents pEC50>10 (EC50<0.1 nM)); Genotype 1a (HCV genotype 1a replicon): D (D represents pEC50>10 (EC50<0.1 nM))

For `COC(=O)N[C@H](C(=O)N1C[C@@H](OC)C[C@H]1c1nc(-c2ccc(-c3cc(Cl)c(NC(=O)c4ccc(N5C[C@H](C)N(C(=O)[C@H]6CC6(C)C)C[C@H]5C)nc4)cc3OC(F)(F)F)cc2)c[nH]1)C1CCOCC1` [Example 28-6], which “Genotype 1b” value (HCV genotype 1b replicon) is on record?
Its value is “D (D represents pEC50>10 (EC50<0.1 nM))”.

What about the “Genotype 1a” value (HCV genotype 1a replicon) of the same compound?
The value was “D (D represents pEC50>10 (EC50<0.1 nM))”.

With `COC(=O)N[C@H](C(=O)N1C[C@@H](OC)C[C@H]1c1nc(-c2ccc(-c3cc(Cl)c(NC(=O)c4ccc(N5C[C@H](C)N(C(=O)C(C)(C)C)C[C@H]5C)nc4)cc3OC(F)(F)F)cc2)c[nH]1)C1CCOCC1` [Example 28-7] as the compound, how does the “Genotype 1b” value (HCV genotype 1b replicon) read?
The value was “D (D represents pEC50>10 (EC50<0.1 nM))”.

What about the “Genotype 1a” value (HCV genotype 1a replicon) of the same compound?
The value was “D (D represents pEC50>10 (EC50<0.1 nM))”.

Which “Genotype 1b” value (HCV genotype 1b replicon) does the source give for `COC(=O)N[C@H](C(=O)N1C[C@@H](OC)C[C@H]1c1nc(-c2ccc(-c3cc(Cl)c(NC(=O)c4ccc(N5CCN(C(=O)[C@H]6CC6(C)C)C[C@H]5C)nc4)cc3OC(F)(F)F)cc2)c[nH]1)C1CCOCC1` [Example 28-11] here?
The value was “D (D represents pEC50>10 (EC50<0.1 nM))”.

What about the “Genotype 1a” value (HCV genotype 1a replicon) of the same compound?
Its value is “D (D represents pEC50>10 (EC50<0.1 nM))”.

With `COC(=O)N[C@H](C(=O)N1C[C@@H](OC)C[C@H]1c1nc(-c2ccc(-c3cc(Cl)c(NC(=O)c4ccc(N5CCN(C(=O)C(C)(C)C)C[C@H]5C)nc4)cc3OC(F)(F)F)cc2)c(CO)[nH]1)C1CCOCC1` [Example 28-15] as the compound, how does the “Genotype 1b” value (HCV genotype 1b replicon) read?
Its value is “D (D represents pEC50>10 (EC50<0.1 nM))”.

And the “Genotype 1a” value (HCV genotype 1a replicon)?
The value was “D (D represents pEC50>10 (EC50<0.1 nM))”.

Which results are given for `COC(=O)N[C@H](C(=O)N1C[C@@H](OC)C[C@H]1c1nc(-c2ccc(-c3cc(Cl)c(NC(=O)c4ccc(N5CCN(C(=O)C(C)(C)CO)C[C@H]5C)nc4)cc3OC(F)(F)F)cc2)c(CO)[nH]1)C1CCOCC1` [Example 28-16]?
Genotype 1b (HCV genotype 1b replicon): D (D represents pEC50>10 (EC50<0.1 nM)); Genotype 1a (HCV genotype 1a replicon): D (D represents pEC50>10 (EC50<0.1 nM))

What does the source list for `COCC(=O)N1CCC[C@@]1(C)C(=O)N1C[C@@H](C)N(c2ccc(C(=O)Nc3cc(OC(F)(F)F)c(-c4ccc(-c5c[nH]c([C@@H]6C[C@H](OC)CN6C(=O)[C@@H](NC(=O)OC)C6CCOCC6)n5)cc4)cc3Cl)cn2)C[C@@H]1C` [Example 28-17]?
Genotype 1b (HCV genotype 1b replicon): D (D represents pEC50>10 (EC50<0.1 nM)); Genotype 1a (HCV genotype 1a replicon): D (D represents pEC50>10 (EC50<0.1 nM))

With `COC(=O)N[C@H](C(=O)N1C[C@@H](OC)C[C@H]1c1nc(-c2ccc(-c3cc(Cl)c(NC(=O)c4ccc(N5C[C@H](C)N(C(=O)[C@]6(C)CCCN6C(=O)OC)C[C@H]5C)nc4)cc3OC(F)(F)F)cc2)c[nH]1)C1CCOCC1` [Example 28-18] as the compound, how does the “Genotype 1b” value (HCV genotype 1b replicon) read?
The value was “D (D represents pEC50>10 (EC50<0.1 nM))”.

And the “Genotype 1a” value (HCV genotype 1a replicon)?
The value was “D (D represents pEC50>10 (EC50<0.1 nM))”.

How did the “Genotype 1b” value (HCV genotype 1b replicon) turn out when `COC(=O)N[C@H](C(=O)N1C[C@@H](OC)C[C@H]1c1nc(-c2ccc(-c3cc(Cl)c(NC(=O)c4ccc(N5C[C@H](C)N(C(=O)[C@]6(C)CCCN6C(=O)CN(C)C)C[C@H]5C)nc4)cc3OC(F)(F)F)cc2)c[nH]1)C1CCOCC1` [Example 28-19] was run?
The value was “D (D represents pEC50>10 (EC50<0.1 nM))”.

What about the “Genotype 1a” value (HCV genotype 1a replicon) of the same compound?
The value was “C (C represents pEC50 between and 9 and about 10, (EC50 between 1 nM and 0.1 nM))”.

What does the source list for `COCC1(C(=O)N2CCN(c3ccc(C(=O)Nc4cc(OC(F)(F)F)c(-c5ccc(-c6c[nH]c([C@@H]7C[C@H](OC)CN7C(=O)[C@@H](NC(=O)OC)C7CCOCC7)n6)cc5)cc4Cl)cn3)[C@H](C)C2)CC1` [Example 28-21]?
Genotype 1b (HCV genotype 1b replicon): D (D represents pEC50>10 (EC50<0.1 nM)); Genotype 1a (HCV genotype 1a replicon): D (D represents pEC50>10 (EC50<0.1 nM))
